The values below come from ChEMBL document CHEMBL1128387, “Sigma ligands with subnanomolar affinity and preference for the sigma 2 binding site. 2. Spiro-joined benzofuran, isobenzofuran, and benzopyran piperidines” (J Med Chem, 1995).

Broadly, the IC50 is the point on the concentration scale where inhibition reaches its midpoint. Read a low IC50 as greater potency in that assay.

Experiment [1] addresses Sigma non-opioid intracellular receptor 1 (Rattus norvegicus, UniProt Q9R0C9). In words: Compound was evaluated for the binding affinity towards Sigma receptor type 1 using radioligand ([3H]-(+)- Pentazocine) binding assay.
Experiment [2] addresses Sigma intracellular receptor 2 (Rattus norvegicus, UniProt Q5U3Y7). In words: Binding affinity towards Sigma receptor type 2 in whole rat brain homogenates except cerebellum using radioligand ([3H]DTG) binding assay. The format is tissue-based.

Chain of Sigma intracellular receptor 2 (Q5U3Y7 whole entry, looked up): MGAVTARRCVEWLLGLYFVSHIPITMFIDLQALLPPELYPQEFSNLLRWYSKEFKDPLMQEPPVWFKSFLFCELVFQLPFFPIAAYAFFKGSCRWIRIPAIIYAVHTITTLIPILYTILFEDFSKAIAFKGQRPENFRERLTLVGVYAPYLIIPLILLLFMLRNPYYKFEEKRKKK
Chain of Sigma non-opioid intracellular receptor 1 (Q9R0C9 whole entry): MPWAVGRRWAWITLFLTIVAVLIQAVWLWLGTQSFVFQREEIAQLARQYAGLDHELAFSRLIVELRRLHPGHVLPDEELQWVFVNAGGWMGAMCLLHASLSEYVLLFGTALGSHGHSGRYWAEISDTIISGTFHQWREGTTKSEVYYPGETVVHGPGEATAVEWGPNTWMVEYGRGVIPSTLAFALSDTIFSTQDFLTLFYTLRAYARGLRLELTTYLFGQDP

Regarding `Fc1ccc(-n2cc(CCCCN3CCC4(CC3)SCc3ccccc34)c3ccccc32)cc1`, the IC50 in experiment [1] worked out at 35 nM. This counts as double-digit nanomolar.
The same measure, in the same setting: the result for `Fc1ccc(-n2cc(CCCCN3CCC4(CC3)OCc3cccc(F)c34)c3ccccc32)cc1` reads 150 nM.
For the compound `CCN1CCC2(CC1)OCc1ccccc12`, the IC50 stood at 140 nM in experiment [1] and 270 nM in experiment [2].
In turn, `Fc1ccc(-n2cc(CCCCN3CCC4(CC3)Cc3ccccc3O4)c3ccccc32)cc1` yielded a half-inhibitory concentration (IC50) in experiment [1] of 360 nM. This lies in the sub-micromolar range.
In the case of `c1ccc(CN2CCC3(CCCc4ccccc43)CC2)cc1`, the IC50 in experiment [2] amounted to 12 nM.
In experiment [1], `c1ccc(CCCCN2CCC3(CC2)OCc2ccccc23)cc1` came in with an IC50 of 0.27 nM.
In experiment [1], `Fc1ccc(-n2cc(CCCCN3CCC4(CC3)COc3ccccc34)c3ccccc32)cc1` displayed an IC50 of 3.8 nM.
In the case of `Fc1ccc(-n2cc(CCCCN3CCC4(CC3)COc3ccccc3C4)c3ccccc32)cc1`, the IC50 in experiment [1] was found to be 200 nM. This IC50 lies about 53-fold higher than the previous one.
The compound `Fc1ccc(-n2cc(CCCCN3CCC4(CCOc5ccccc54)CC3)c3ccccc32)cc1` registered a half-inhibitory concentration (IC50) in experiment [1] of 7 nM.
Compound `c1ccc2c(c1)COC21CCN(CCCOC2CCCCC2)CC1` registered an IC50 in experiment [1] of 0.4 nM.
Still for that read-out and setting: the figure for `Fc1ccc(-n2cc(CCCCN3CCC4(CC3)OCc3c(F)cccc34)c3ccccc32)cc1` is 290 nM.
`c1ccc(CCCN2CCC3(CC2)OCc2ccccc23)cc1` gave an IC50 in experiment [1] of 0.56 nM.
In the case of `Fc1ccc(-n2cc(CCCCN3CCC4(CC3)OCc3c(C(F)(F)F)cccc34)c3ccccc32)cc1`, the IC50 in experiment [1] stood at 180 nM.
In the case of `Fc1ccc(-n2cc(CCCCN3CCC4(CC3)Oc3ccccc3O4)c3ccccc32)cc1`, the IC50 in experiment [1] came to 430 nM.
For the compound `CC(C)N1CCC2(CC1)OCc1ccccc12`, the figures for the IC50 in experiment [1] and in experiment [2] were 31 nM and 49 nM, respectively.
With `c1ccc2c(c1)COC21CCN(CCCCC2CCCCC2)CC1`, the IC50 in experiment [1] was determined as 1.5 nM.
Same read-out and setting: the result for `Fc1ccc(-n2cc(CCCCN3CCC4(CC3)Cc3ccccc3CO4)c3ccccc32)cc1` reads 23 nM.
The same measure, in the same setting: the figure for `Fc1ccc(-n2cc(CCCCN3CCC4(CC3)COCc3ccccc34)c3ccccc32)cc1` is 3.4 nM.
In the case of `CCCN1CCC2(CC1)OCc1ccccc12`, the IC50 in experiment [1] worked out at 4.7 nM; in experiment [2], 23 nM.
With `Cc1ccc2c(c1)COC21CCN(CCCCc2cn(-c3ccc(F)cc3)c3ccccc23)CC1`, the IC50 was 9.5 nM in experiment [1] and 2.3 nM in experiment [2].
Regarding `c1ccc(CCCCCN2CCC3(CC2)OCc2ccccc23)cc1`, in experiment [1], the IC50 was 0.82 nM. In other words, the sub-nanomolar range.
On to `c1ccc2c(c1)COC21CCNCC1`, for which the IC50 in experiment [1] worked out at 630 nM; in experiment [2] it was 11000 nM.
As for `c1ccc(CCN2CCC3(CC2)OCc2ccccc23)cc1`, in experiment [1], the IC50 is 2.2 nM.
Compound `Fc1ccc(-n2cc(CCCCN3CCC4(CC3)OCCc3ccccc34)c3ccccc32)cc1` came in with an IC50 in experiment [1] of 53 nM. Compared with the last compound, the IC50 is about 24-fold higher.
